{
  "source": "patent US10548906B2",
  "about": "“Methods of promoting hepatic regeneration” (Intercept Pharmaceuticals, Inc., priority 2015, dated 2020)",
  "key": {"[1]": {"system": "Wistar rats", "test": "Bile volume and HPLC bile acid analysis in rBDL rats prior to PHx (Example 6)", "format": "in vivo, rat", "method": "At baseline (i.e., directly before PHx) and one to five days after PHx, animals were euthanized under isoflurane anesthesia by exsanguination. Blood samples were collected from the caval vein in heparin-anticoagulated vacutainers (BD, Franklin Lakes, N.J.) and centrifuged for 10 min (3000×g, 4° C.). In rBDL animals sacrificed at baseline, bile was aspirated with a syringe from the dilated extrahepatic bile duct, weighed, and stored at −80° C. The liver and ileum were excised, weighed, loafed, and either fixed in a 10% (vol/vol) neutralized formalin solution (J. T. Baker, Center Valley, Pa.), snap-frozen in liquid nitrogen and stored at −80° C., or collected in RNAlater (Qiagen, Venlo, the Netherlands) and stored at −20° C. Liver regrowth was calculated from the regenerated liver mass, and was expressed as percentage of total liver mass prior to PHx. The projected remnant liver mass was calculated using the weight of the resected liver segments, which represent 70% of the total liver mass. Dry liver weights were measured to correct for hepatic water content [Kloek 2010a].\nBile acids were separated and quantified by reverse-phase high-performance liquid chromatography (HPLC) [Lionarons 2016]. Bile or plasma samples (20 μL) were deproteinated by the addition of 5 volumes of acetonitrile. Following centrifugation (10 min at 20,000×g), solvent was evaporated from supernatants and bile salts were solubilized in 200 μL of 25% methanol. For liver homogenates, 100 mg liver tissue was sonicated for 30-90 s in 500 μL of water. One mL of acetonitrile was added for protein precipitation. Samples were subsequently centrifuged at 20,000×g for 10 min, after which the supernatant was used for analysis. Results were corrected for homogenate protein content. One hundred μL of sample was applied to a Hypersil C18 HPLC column (Thermo Scientific, Waltham, Mass.) operated at 20° C. […] Detection was done using a Nano Quantity Analyte Detector QT-500 (Quant Technologies, Blaine, Minn.). Bile acids were quantified using a separate calibration curve per species. […]"}, "[2]": {"system": "New Zealand White rabbits", "test": "PVE-induced liver growth in rabbits, CT volumetry and body weight (Example 5)", "quoted_text": "PVE of the cranial liver lobes was performed using polyvinyl alcohol particles and coils at day 0. Caudal liver volume (CLV) was analyzed by CT volumetry at days −7, −1, +3 and +7. Liver function (i.e. mebrofenin uptake) was quantified in subgroups of animals using hepatobiliary scintigraphy. Additional parameters analyzed were plasma transaminase levels, histological scoring of H&E- and Ki67-stained liver sections, and FXR target gene expression.\nSix groups of six rabbits were planned for PVE. […] Treatment was started 7 days before PVE, and continued until sacrifice at 3 or 7 days after PVE.\nUnder digital subtraction portography a Renegade 3F microcatheter (Boston Scientific, Natick, Mass.) with a Transend-ex 0.36 mm×182-cm guide wire (Boston Scientific) was positioned in the main portal branch to the cranial liver lobes. Polyvinyl alcohol particles (90-180 μm and 300-500 μm in diameter, Cook, Bloomington, Ind.) and 2 fibered platinum coils (4.0 and 6.0 mm; Boston Scientific) were infused through the catheter to occlude the portal branches to the cranial lobes. PVE was confirmed by portography, and the mesenteric vein was closed using a ligature. The abdomen was closed in two layers. Baytril was administered daily for 3 days following PVE.\nMultiphase CT-scans (Brilliance 64, Philips, Eindhoven, The Netherlands) were performed at day −7, −1, +3, and +7. Animals (n=18 per treatment group) were anesthetized and a 22G catheter was placed in the lateral ear vein. A baseline scan was made and 3 mL of contrast solution (Visipaque, GE Healthcara, Waukesha, Wis.) was injected. Arterial, portal and venous phase scans were made after 15, 30, 45 seconds respectively. Volumetric analysis was performed on 3D reconstruction of 5-mm axial slices using manual delineation. Caudal liver volume (CLV) and total liver volume (TLV) were determined and increase in CLV was determined using the following formula:\nThe same formula was used to calculate the decrease in cranial liver volume (CrLV; CrLV=TLV−CLV). Increase in CLV and decrease in CrLV was calculated using day −1 values as baseline. […] Regeneration rate was calculated using the formula:"}, "[3]": {"system": "New Zealand White rabbits", "test": "Portal vein embolization (PVE) in rabbits, 6-ECDCA vs vehicle (Example 4)", "format": "in vivo, rabbit", "excerpt": "Female New Zealand White rabbits with a mean weight of 3.0±0.5 kg were acclimatized for 1 week under standardized laboratory conditions in a temperature-controlled room. The animals were individually housed, had free access to standard laboratory food and water, and were subjected to a 12-h light/dark cycle per day. The rabbits were divided into two groups receiving 6-ECDCA and two control groups receiving vehicle. Specifically, the PVE study rabbits were divided into following groups: • Group 1: Normal diet (6-ECDCA 10 mg/kg/day, oral gavage) (N=6), animals sacrificed at day 7, post PVE. • Group 2: Normal diet (Vehicle) (N=6), animals sacrificed at day 7 post PVE. • Group 3: Normal diet (6-ECDCA 10 mg/kg/day, oral gavage) (N=6), animals sacrificed at day 3, post PVE. • Group 4: Normal diet (Vehicle) (N=6), animals sacrificed at day 3, post PVE.\nThe rabbit liver consists of four liver lobes, three of which are positioned cranially, with the fourth located caudally. In the rabbit PVE model the cranial liver lobes, which account for approximately 80% of the total liver volume, were embolized. The rabbit was placed in a supine position after subcutaneous injection of 0.03 mg/kg buprenorphine and 0.02 mg/kg enrofloxacin. Rabbits were given enrofloxacin 0.02 mg/kg subcutaneously once a day for 3d postoperatively. Animals were anesthetized by intramuscular injection of 25.0 mg/kg ketamine and 0.2 mg/kg dexmedetomidine. Isoflurane 1%-2% with O2/air (1:0.7 L/min) was used to maintain anesthesia. Heart rate and arterial oxygen saturation were measured by pulse oximetry continuously throughout the procedure.\nTo identify the individual portal branches, portography was performed. After passing the portal branch to the caudal liver lobe, a microcatheter was positioned into the main portal branch supplying the cranial liver lobes. Animals received an initial mixture of contrast (Visipaque) and 90-180 μm polyvinyl alcohol (PVA) particles, followed by injection of 300-500 μm PVA particles until cessation of flow and placement of three platinum coils (6 mm). Portography directly after PVE confirmed total occlusion of the cranial portal blood flow in the embolization groups. The hypertrophy and atrophy responses of the caudal and cranial lobes were measured using CT volumetry before embolization and on day 3 and 7 post-embolization.\nMultiphasic CT scans were performed using a 64-slice CT scan (Brilliance 64-channel; Philips, Eindhoven, The Netherlands). Rabbits were placed in supine position. After a blank series, a contrast enhanced scan was performed 15 s (arterial phase), 30 s (portal phase), and 45 s (venous phase) after contrast injection (4 mL Visipaque), followed by 3 mL NaCl. 3D-reconstructions of the liver were made using reconstructed 2 mm axial slices. The total liver and the cranial and caudal liver lobes were manually delineated and total liver volume (TLV) and the caudal liver volume (CLV) and cranial liver volume (CrLV) were calculated.\nThe following measurements were carried out: (1) body weight, (2) computed tomography of the embolized and non-embolized lobes, (3) expression of cell cycle-related and bile salt homeostasis-related transcripts in the liver, (4) expression of ileal transcripts, and (5) serum total bile salt concentration.\nSerum bile salt concentration was determined at baseline, at 3 h, and at days 1, 3, and 7 post PVE. […]"}, "[4]": {"details": "after seven days of OCA treatment"}},
  "note": "“Also recorded” adds a separate entry of the source.",
  "data": [
    {"compound": "CC[C@H]1[C@@H](O)[C@@H]2[C@H](CC[C@]3(C)[C@@H]([C@H](C)CCC(=O)O)CC[C@@H]23)[C@@]2(C)CC[C@@H](O)C[C@@H]12", "note": "[Compound 1, 3α,7α-dihydroxy-6α-ethyl-5β-cholanic acid]", "values": [
      {"measurement": "bile retrieved from the extrahepatic bile duct", "setting": "[1]; [4]", "value": "substantial increase"},
      {"measurement": "biliary BA output", "setting": "[1]; [4]", "value": "elevated"},
      {"measurement": "hepatic BA load / content", "setting": "[1]; prior to PHx, rBDL, listed as OCA", "value": "reduction; also recorded: effectively counteracted"},
      {"measurement": "increase of CLV relative to vehicle controls", "setting": "[2]; 3 days after PVE", "value": 2.2, "unit": "fold"},
      {"measurement": "increase in caudal liver volume (CLV)", "setting": "[2]; 3 days after PVE, relative to day −1, N=17", "value": "56.1±20.3", "unit": "%"},
      {"measurement": "increase of CLV relative to vehicle controls", "setting": "[2]; day 7 after PVE", "value": 1.5, "unit": "fold"},
      {"measurement": "increase in caudal liver volume (CLV)", "setting": "[2]; day 7 after PVE, relative to day −1, N=11", "value": "102.0±38.2", "unit": "%"},
      {"measurement": "total liver volume (TLV) corrected for body weight", "setting": "[2]; pre-treatment period day −7 until day −1, 10 mg/kg daily oral", "value": "did not induce spontaneous liver growth"},
      {"measurement": "body weight decrease after PVE", "setting": "[2]; vs vehicle", "value": "to a similar extent"},
      {"measurement": "increase in caudal liver volume (CLV)", "setting": "[3]; CT, days 3 and 7 post embolization, FIG. 3", "value": "accelerates hypertrophy of the non-embolized lobe"},
      {"measurement": "concentration of serum bile salts vs control", "setting": "[3]; day 1 post PVE, FIG. 8", "value": "relatively lower"},
      {"measurement": "body weight, difference vs vehicle", "setting": "[3]; each day of the study, FIG. 2", "value": "not statistically significant"},
      {"measurement": "decrease in cranial liver lobe volume (CrLV)", "setting": "[3]; embolized lobe, FIG. 5", "value": "does not affect atrophy of the embolized lobe"},
      {"measurement": "liver regeneration and liver mass", "setting": "[3]; rabbit PVE model, 10 mg/kg/day oral gavage", "value": "accelerates liver regeneration and increases liver mass"}
    ]}
  ]
}
